Results: patent US20060069149A1, “Thiadibenzoazulene derivatives for the treatment of inflammatory diseases” (Pliva-Istrazivacki Institut d.o.o., priority 2003, published 2006)

System: TNF-α and IL-1 secretion
Test: investigated assays, not said which: TNF-α and IL-1 secretion in human PBMC, in mouse peritoneal macrophages, LPS-induced secretion in mice, writhing assay, LPS-induced shock in mice
Conditions: active means: PBMC IC50 20 μM or lower; mouse macrophages IC50 10 μM or lower; 30% or more TNF-α inhibition at 10 mg/kg; analgetic activity as acetylsalicylic acid or better; survival 40% or more at 30 mg/kg
Procedure: The inhibitory action of the present compounds upon TNF-α and IL-1 secretion was determined by the following in vitro and in vivo experiments:
Determination of TNF-α and IL-1 Secretion in Human Peripheral Blood Mononuclear Cells in vitro
Human peripheral blood mononuclear cells (PBMC) were prepared from heparinized whole blood after separating PBMC on Ficoll-Paque™Plus (Amersham-Pharmacia). […] The IL-1 level was determined in an assay under the same conditions and with the same number of cells and the same concentration of the stimulus by ELISA procedure (R&D Systems). The percentage of inhibition of TNF-α or IL-1 production was calculated by the equation: % inhibition=[1−(TS−NC)/(PC−NC)]*100. […]
In order to obtain peritoneal macrophages, Balb/C mouse strain males, age 8 to 12 weeks, were injected i.p. with 300 μg of zymosan (SIGMA) dissolved in a phosphate buffer (PBS) in a total volume of 0.1 ml/mouse. […] The TNF-α level in the cell supernatant was determined by ELISA procedure (R&D Systems, Biosource). IL-1 level was determined in an assay, identical to an assay for TNF-a by ELISA procedure (R&D Systems). The percentage of inhibition of TNF-α or IL-1 production was calculated by the equation: % inhibition=[1−(TS−NC)/(PC−NC)]*100. […]

Compound | activity in the investigated assays
CCOC(=O)c1cc2c(s1)-c1ccc(OCCN3CCCC3)cc1Oc1ccccc1-2 [Example 4, 10-(2-Pyrrolidin-1-yl-ethoxy)-8-oxa-1-thia-dibenzo[e,h]azulene-2-carboxylic acid ethyl ester] | activity in at least two investigated assays
CN(C)CCCOCc1cc2c(s1)-c1ccc(OCCCN(C)C)cc1Oc1ccccc1-2 [Example 14, {3-[2-(3-Dimethylamino-propoxymethyl)-8-oxa-1-thia-dibenzo[e,h]azulene-10-yloxy]-propyl}-dimethyl-amine] | activity in at least two investigated assays
